Measurements from patent US20120040966A1, “ANTI-VIRAL COMPOUNDS, TREATMENT, AND ASSAY” (priority 2008, published 2012).
Where two headings read alike, the source gives them in different places.

How the values were obtained:
[1] = test system: Influenza virus strain A/CA/04/2009 (H1N1); experiment: organism not typed; type: cell-based; conditions: MDCK, 72 h, read-out: H1N1 EC50 (@ 50% Via)
[2] = test system: Madin Darby Canine Kidney (MDCK) cells; experiment: cells; type: cell-based; conditions: Canis lupus familiaris, MDCK, read-out: IC50 (toxicity)
[3] = test system: influenza strain A/VN/1203/2004 (H5N1); experiment: microbe, parasite or virus in culture; type: cell-based, Influenza A virus (H5N1)
[4] = Influenza A virus, H5N1, MDCK, 72 h, read-out: H5N1 EC50 (@ 50% Via)
[5] = Influenza A virus, H5N1, MDCK, 72 h, read-out: H5N1 EC50 (Inf Pt)
[6] = read-out: H5N1 EC50 (@ 50% Via)

| Structure (SMILES) | EC50 [1] | IC50 [2] | EC50 [3, 4] | EC50 [3, 5] | EC50 [3, 6] | EC50 ([3]; read-out: H5N1 EC50 (Inf Pt)) |
| --- | --- | --- | --- | --- | --- | --- |
| Cc1ccc(C2NC(=O)NC3=C2CCCc2ccccc23)cc1 (centres unmarked) [compound 22083] | 9.5 µM | > 50 µM | 28 µM | – | – | – |
| COc1ccc2c(c1)C1=C(CC2)C(c2ccc(C)cc2)NC(=O)N1 (centres unmarked) [compound 22087] | 47 µM | > 50 µM | > 50 µM | – | – | – |
| Cc1ccc(C2NC(=O)NC3=C2COc2ccccc23)cc1C (centres unmarked) [compound 22105] | 14.9 µM | > 50 µM | 1.8 µM | 1 µM | 2.7 µM | 1.9 µM |
| COc1cccc(C2NC(=O)NC3=C2COc2ccccc23)c1 (centres unmarked) [compound 22107] | 46 µM | > 50 µM | > 50 µM | > 50 µM | – | – |
| Cc1cccc(C2NC(=O)NC3=C2COc2ccccc23)c1 (centres unmarked) [compound 22109] | > 50 µM | > 50 µM | – | – | – | – |
| COc1cccc2c1CCC1=C2NC(=O)NC1c1ccc(C)c(C)c1 (centres unmarked) [compound 22113] | 16.8 µM | > 50 µM | – | 2.4 µM | – | 4.4 µM |
| O=C1NC2=C(CCc3ccccc32)C(c2ccc(C(F)(F)F)cc2)N1 (centres unmarked) [compound 22119] | 11.7 µM | > 50 µM | 32.9 µM | 14.8 µM | – | – |
| O=C1NC2=C(CCc3ccccc32)C(c2ccc3c(c2)OCO3)N1 (centres unmarked) [compound 22121] | > 50 µM | 29.6 µM | 0.39 µM | 0.34 µM | – | 0.22 µM |
| COc1cccc2c1CCC1=C2NC(=O)NC1c1ccc(C)cc1 (centres unmarked) [compound 22123] | > 50 µM | > 50 µM | 18.3 µM | 10.9 µM | – | – |
| COc1ccc(-c2nc(=O)[nH]c3c2CCc2ccccc2-3)cc1 [compound 22125] | 24 µM | > 50 µM | 0.96 µM | 0.92 µM | 1.62 µM | 1.45 µM |
| O=C1NC2=C(CCc3ccccc32)C(c2cccc([N+](=O)[O-])c2)N1 (centres unmarked) [compound 22347] | > 50 µM | > 50 µM | 5.5 µM | 4.2 µM | – | – |
| O=C1NC2=C(CCc3ccccc32)C(c2ccc([N+](=O)[O-])cc2)N1 (centres unmarked) [compound 22349] | 17.7 µM | > 50 µM | 1.17 µM | 0.95 µM | – | – |
| O=C1NC2=C(COc3ccccc32)C(c2ccc(Cl)c(Cl)c2)N1 (centres unmarked) [compound 22404] | > 50 µM | > 50 µM | 1.6 µM | – | 0.94 µM | – |
| COc1ccc(C2NC(=O)NC3=C2CCc2ccccc23)cc1Br (centres unmarked) [compound 22405] | 0.425 µM | > 50 µM | – | – | – | – |
| O=C1NC2=C(CCc3ccccc32)C(c2ccc(Cl)cc2Cl)N1 (centres unmarked) [compound 22406] | > 50 µM | > 50 µM | > 50 µM | > 50 µM | – | – |
| O=C1NC2=C(CCc3ccccc32)C(c2ccc(F)c(Br)c2)N1 (centres unmarked) [compound 22409] | 1.4 µM | > 50 µM | – | – | – | – |
| COc1ccc(C2NC(=O)NC3=C2CSc2ccccc23)cc1Br (centres unmarked) [compound 22412] | 0.351 µM | > 50 µM | – | – | – | – |
| O=C1NC2=C(C(c3ccc4c(c3)OCO4)N1)C(c1ccccc1)Oc1ccccc12 (centres unmarked) [compound 22421] | > 50 µM | > 50 µM | > 50 µM | > 50 µM | – | – |
| COc1ccc(C2NC(=O)NC3=C2CCc2ccccc23)cc1C (centres unmarked) [compound 22516] | 10 µM | > 50 µM | – | – | – | – |
| COc1cc(C2NC(=O)NC3=C2CCc2ccccc23)ccc1F (centres unmarked) [compound 22517] | > 50 µM | > 50 µM | 9.6 µM | 7.2 µM | – | – |
| CCOc1cccc(C2NC(=O)NC3=C2CCc2ccccc23)c1 (centres unmarked) [compound 22520] | > 50 µM | > 50 µM | – | 7.1 µM | – | – |
| COc1ccc(C2NC(=O)NC3=C2COc2ccccc23)cc1Br (centres unmarked) [compound 22521] | 4 µM | > 50 µM | – | – | – | – |
| COc1ccc(C2NC(=O)NC3=C2CCc2ccccc23)cc1F (centres unmarked) [compound 22522] | 3.8 µM | > 50 µM | 0.26 µM | 0.19 µM | – | – |
| COc1ccc(C2NC(=O)NC3=C2CCc2ccccc23)cc1OC (centres unmarked) [compound 22524] | 39 µM | > 50 µM | 7.4 µM | 7 µM | – | – |
| COc1ccc(C2NC(=O)NC3=C2CCc2c(C)cc(C)cc23)cc1Br (centres unmarked) [compound 22526] | > 50 µM | 6.9 µM | > 48 µM | > 48 µM | – | – |
| COc1ccc(C2NC(=O)NC3=C2CC(C)c2ccccc23)cc1Br (centres unmarked) [compound 22700] | 0.0985 µM | > 48 µM | – | – | – | – |
| O=C1NC2=C(COc3ccccc32)C(c2ccc(O)c(Br)c2)N1 (centres unmarked) [compound 22701] | 1.6 µM | > 20 µM | 0.0262 µM | 0.021 µM | 0.027 µM | 0.027 µM |

| Structure (SMILES) | EC50 [1] | IC50 [2] | EC50 [3, 4] | EC50 [3, 5] | EC50 [3, 6] | EC50 ([3]; read-out: H5N1 EC50 (Inf Pt)) |
| --- | --- | --- | --- | --- | --- | --- |
| COc1c(Br)cc(C2NC(=O)NC3=C2CCc2ccccc23)cc1Br (centres unmarked) [compound 22703] | > 40 µM | > 40 µM | 38 µM | > 40 µM | – | – |
| CCOc1c(Br)cc(C2NC(=O)NC3=C2CCc2ccccc23)cc1Br (centres unmarked) [compound 22704] | > 40 µM | > 40 µM | > 40 µM | > 40 µM | – | – |
| Cc1cc(C2NC(=O)NC3=C2CCc2ccccc23)ccc1O (centres unmarked) [compound 22706] | 4.8 µM | > 50 µM | – | – | – | – |
| O=C1NC2=C(CCc3ccccc32)C(c2ccc(O)c(Br)c2)N1 (centres unmarked) [compound 22709] | 0.118 µM | > 53 µM | – | – | – | – |
| CCOc1ccc(C2NC(=O)NC3=C2CCc2ccccc23)cc1C (centres unmarked) [compound 22711] | 37 µM | > 50 µM | 1.3 µM | 1.2 µM | – | – |
| COc1ccc(C2NC(=O)NC3=C2CCc2c(OC)cccc23)cc1Br (centres unmarked) [compound 22722] | 1.1 µM | > 0.062 µM | > 0.062 µM | > 0.062 µM | – | – |
| COc1ccc(C2NC(=O)NC3=C2CCCc2ccccc23)cc1Br (centres unmarked) [compound 23096] | 0.153 µM | > 40 µM | 0.242 µM | 0.28 µM | – | – |
| CC(=O)Oc1ccc(C2NC(=O)NC3=C2COc2ccccc23)cc1Br (centres unmarked) [compound 23097] | 1 µM | > 40 µM | 0.0928 µM | 0.102 µM | – | – |
| O=C1NC2=C(COc3ccccc32)C(c2ccc(F)c(Br)c2)N1 (centres unmarked) [compound 23098] | > 40 µM | > 40 µM | 1.2 µM | 1.3 µM | – | – |
| COc1ccc(C2NC(=O)NC3=C2CN(C(C)=O)c2ccccc23)cc1Br (centres unmarked) [compound 23099] | 0.0062 µM | > 40 µM | – | – | – | – |
| COc1ccc(C2NC(=O)NC3=C2CCc2ncccc23)cc1Br (centres unmarked) [compound 23102] | > 40 µM | > 40 µM | 14.5 µM | – | – | – |
| CCC(=O)N1CC2=C(NC(=O)NC2c2ccc(OC)c(Br)c2)c2ccccc21 (centres unmarked) [compound 23205] | 10.1 µM | > 40 µM | 0.193 µM | 0.189 µM | – | – |
| COc1ccc(C2NC(=O)NC3=C2CN(C(=O)COC(C)=O)c2ccccc23)cc1Br (centres unmarked) [compound 23206] | 0.0257 µM | > 40 µM | 0.022 µM | 0.022 µM | 0.0119 µM | 0.0112 µM |
| COc1ccc(C2NC(=O)NC3=C2CN(C(=O)c2ccco2)c2ccccc23)cc1Br (centres unmarked) [compound 23209] | > 40 µM | > 40 µM | > 40 µM | > 40 µM | – | – |
| COc1ccc(C2NC(=O)NC3=C2COc2ccccc23)cc1C (centres unmarked) [compound 23210] | 3.1 µM | > 40 µM | 0.332 µM | 0.307 µM | – | – |
| COc1ccc(C2NC(=O)NC3=C2CN(C(=O)CN2CCOCC2)c2ccccc23)cc1Br (centres unmarked) [compound 23272] | 3.5 µM | > 40 µM | 9.1 µM | 8.7 µM | – | – |
| COc1ccc(C2NC(=O)NC3=C2CN(C(=O)c2ccc4c(c2)OCO4)c2ccccc23)cc1Br (centres unmarked) [compound 23274] | > 40 µM | > 40 µM | > 40 µM | > 40 µM | – | – |
| COc1ccc(C2NC(O)NC3=C2CN(C(=O)CO)c2ccccc23)cc1Br (centres unmarked) [compound 23275] | < 0.067 µM | > 40 µM | 0.0027 µM | 0.0027 µM | – | – |
| COc1ccc(C2NC(=O)NC3=C2CN(C(=O)CNCCO)c2ccccc23)cc1Br (centres unmarked) [compound 24717] | 5.6 µM | > 40 µM | 2.1 µM | 2.1 µM | – | – |
| COc1ccc(C2NC(=O)NC3=C2CN(C(=O)CNC2CC2)c2ccccc23)cc1Br (centres unmarked) [compound 24718] | 8 µM | > 40 µM | 9.7 µM | 9.7 µM | – | – |
| COc1ccc(C2NC(=O)NC3=C2CN(C(=O)Cn2ccnc2)c2ccccc23)cc1Br (centres unmarked) [compound 25010] | – | > 40 µM | < 0.316 µM | 0.082 µM | – | – |
| COc1ccc(C2NC(=O)NC3=C2CN(C(=O)CNCCN2CCOCC2)c2ccccc23)cc1Br (centres unmarked) [compound 25011] | – | > 40 µM | 3.9 µM | 3.9 µM | – | – |
| COc1ccc(C2NC(=O)NC3=C2CN(C(=O)CN(C)C)c2ccccc23)cc1Br (centres unmarked) [compound 25012] | 3 µM | > 40 µM | < 0.33 µM | 0.2 µM | – | – |
| COc1ccc(C2NC(=O)NC3=C2CN(C(=O)CNC(C)=O)c2ccccc23)cc1Br (centres unmarked) [compound 25350] | 0.622 µM | > 40 µM | 0.045 µM | 0.044 µM | – | – |
| COC(=O)N1CC2=C(NC(=O)NC2c2ccc(OC)c(Br)c2)c2ccccc21 (centres unmarked) [compound 25408] | 9.7 µM | > 40 µM | 0.208 µM | 0.201 µM | – | – |
| COc1ccc(C2NC(=O)NC3=C2CN(C(=O)CSCCN(C)C)c2ccccc23)cc1Br (centres unmarked) [compound 25410] | 15.6 µM | – | 0.714 µM | 0.669 µM | – | – |
